Assay type in all cases: in vivo
The test system of experiment [1] is Setaria faberi (SETFA). The experiment in a line: Post-emergence herbicidal glasshouse test, Setaria faberi. As to conditions: rate 250 g/ha, evaluated after 13 days, scale 100 = total damage to plant, 0 = no damage; for pest or weed control at 250 g/ha: Setaria faberi, 312 h. As for the experimental part:
(§1) Seeds of a variety of test species were sown in standard soil in pots. After cultivation for one day (pre-emergence) or after 8 days cultivation (post-emergence) under controlled conditions in a glasshouse (at 24/16° C., day/night; 14 hours light; 65% humidity), the plants were sprayed with an aqueous spray solution derived from the formulation of the technical active ingredient in acetone/water (50:50) solution containing 0.5% Tween 20 (polyoxyethelyene sorbitan monolaurate, CAS RN 9005-64-5). The test plants were then grown in a glasshouse under controlled conditions in a glasshouse (at 24/16° C., day/night; 14 hours light; 65% humidity) and watered twice daily. After 13 days for pre and post-emergence, the test was evaluated ([…] to plant; 0=no damage to plant).
(§2) Setaria faberi (SETFA), Lolium perenne (LOLPE), Alopecurus myosuroides (ALOMY), Echinochloa crus-galli (ECHCG) and Avena fatua (AVEFA).

In experiment [2] the test system is Echinochloa crus-galli (ECHCG). Kind of experiment: Pre-emergence herbicidal glasshouse test, Echinochloa crus-galli. The settings on record: rate 250 g/ha, evaluated after 13 days, scale 100 = total damage to plant, 0 = no damage; for pest or weed control at 250 g/ha: Echinochloa crus-galli, 312 h. Put shortly: (§3)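 Pots, standard soil; spray at day 1 (pre-em) or day 8 (post-em). Formulation: acetone/water 50:50 + 0.5% Tween 20, diluted into aqueous spray. Glasshouse 24/16° C., 14 h light, 65% RH, watering twice daily. Scored at 13 days: 0 = no damage up to total plant damage.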

For experiment [3], the system named is Avena fatua (AVEFA). Kind of experiment: Post-emergence herbicidal glasshouse test, Avena fatua. The settings on record: rate 250 g/ha, evaluated after 13 days, scale 100 = total damage to plant, 0 = no damage; for pest or weed control at 250 g/ha: Avena fatua, 312 h. A digest of the protocol:
as §3

For experiment [4], the system named is Alopecurus myosuroides (ALOMY). The experiment in a line: Post-emergence herbicidal glasshouse test, Alopecurus myosuroides. As to conditions: rate 250 g/ha, evaluated after 13 days, scale 100 = total damage to plant, 0 = no damage; for pest or weed control at 250 g/ha: Alopecurus myosuroides, 312 h. Put shortly:
as §3

The test system of experiment [5] is Avena fatua (AVEFA). The experiment in a line: Pre-emergence herbicidal glasshouse test, Avena fatua. As to conditions: rate 250 g/ha, evaluated after 13 days, scale 100 = total damage to plant, 0 = no damage; for pest or weed control at 250 g/ha: Avena fatua, 312 h. A digest of the protocol:
as §3

Experiment [6] has as its system Alopecurus myosuroides (ALOMY). The experiment in a line: Pre-emergence herbicidal glasshouse test, Alopecurus myosuroides. The settings on record: rate 250 g/ha, evaluated after 13 days, scale 100 = total damage to plant, 0 = no damage; for pest or weed control at 250 g/ha: Alopecurus myosuroides, 312 h. Put shortly: as §3
Experiment [7] deals with Setaria faberi (SETFA). The experiment in a line: Pre-emergence herbicidal glasshouse test, Setaria faberi. As to conditions: rate 250 g/ha, evaluated after 13 days, scale 100 = total damage to plant, 0 = no damage; for pest or weed control at 250 g/ha: Setaria faberi, 312 h. On the procedure:
as §1, §2

The subject of experiment [8] is Echinochloa crus-galli (ECHCG). Kind of experiment: Post-emergence herbicidal glasshouse test, Echinochloa crus-galli. As to conditions: rate 250 g/ha, evaluated after 13 days, scale 100 = total damage to plant, 0 = no damage; for pest or weed control at 250 g/ha: Echinochloa crus-galli, 312 h. A digest of the protocol:
as §3

A word on the pest or weed control: it is the degree to which the test organism was suppressed or injured, in per cent. Read a low pest or weed control as a weak effect. Consider `CCc1cc(-c2ccccc2)ccc1C1=C(O)[C@@]2(C)CC[C@H](O2)C1=O` (racemic) [Compound A-4], for which the pest or weed control at 250 g/ha was 60% with Setaria faberi (SETFA) [1]; 40% in experiment [2]; 0% in the experiment with Avena fatua (AVEFA) [3]; 80% in experiment [4]; 0% with Avena fatua (AVEFA) [5]; 40% in experiment [6]. The pest or weed control at 250 g/ha amounted to 20% in the experiment on Setaria faberi (SETFA) [7] and 80% in experiment [8].
In the case of `CCc1cc(-c2ccc(Cl)cc2)ccc1C1=C(O)[C@@]2(C)CC[C@H](O2)C1=O` (racemic) [Compound A-5], the pest or weed control at 250 g/ha in the experiment on Setaria faberi (SETFA) [1] is 100%; in experiment [2] it was 40%; in the experiment with Avena fatua (AVEFA) [3] it was 70%; in experiment [4], 90%; with Avena fatua (AVEFA) [5], 0%; in experiment [6], 30%. Besides, the pest or weed control at 250 g/ha turned out to be 70% with Setaria faberi (SETFA) [7] and 100% in experiment [8].
Regarding `CCc1cc(-c2ccc(C)cc2)ccc1C1=C(O)[C@@]2(C)CC[C@H](O2)C1=O` (racemic) [Compound A-6], the pest or weed control at 250 g/ha was determined as 80% in the experiment on Setaria faberi (SETFA) [1]; 0% in experiment [2]; 30% in the experiment with Avena fatua (AVEFA) [3]; 70% in experiment [4]; 0% in the experiment on Avena fatua (AVEFA) [5]; 0% in experiment [6]. The pest or weed control at 250 g/ha is 0% in the experiment with Setaria faberi (SETFA) [7] and 80% in experiment [8].
With `Cc1cc(-c2ccc(Cl)cc2)ccc1C1=C(O)[C@@]2(C)CC[C@H](O2)C1=O` (racemic) [Compound A-10], the pest or weed control at 250 g/ha was 100% in the experiment with Setaria faberi (SETFA) [1]; 30% in experiment [2]; 50% with Avena fatua (AVEFA) [3]; 90% in experiment [4]; 0% in the experiment on Avena fatua (AVEFA) [5]; 0% in experiment [6]. The figures for the pest or weed control at 250 g/ha (in the experiment on Setaria faberi (SETFA) [7]; in experiment [8]) were 0% and 100%, respectively.
Take `CCc1cc(-c2ccc(Cl)cc2)cc(CC)c1C1=C(O)[C@@]2(C)CC[C@H](O2)C1=O` (racemic) [Compound A-11]: the pest or weed control at 250 g/ha with Setaria faberi (SETFA) [1] amounted to 100%; in experiment [2], 100%; in the experiment with Avena fatua (AVEFA) [3], 100%; in experiment [4], 100%; in the experiment on Avena fatua (AVEFA) [5] it was 100%; in experiment [6] it was 80%. Also, the pest or weed control at 250 g/ha (in the experiment with Setaria faberi (SETFA) [7]; in experiment [8]) was 100% each time.
Turning to `CCc1cc(-c2ccc(C)cc2)cc(CC)c1C1=C(O)[C@@]2(C)CC[C@H](O2)C1=O` (racemic) [Compound A-12], the pest or weed control at 250 g/ha with Setaria faberi (SETFA) [1] turned out to be 100%; in experiment [2], 70%; in the experiment on Avena fatua (AVEFA) [3], 0%; in experiment [4], 70%; in the experiment on Avena fatua (AVEFA) [5], 20%; in experiment [6] it was 30%. Moreover, the pest or weed control at 250 g/ha in the experiment on Setaria faberi (SETFA) [7] amounted to 80%; in experiment [8] it was 100%.
On to `CCc1cc(-c2ccc(Cl)c(F)c2)ccc1C1=C(O)[C@@]2(C)CC[C@H](O2)C1=O` (racemic) [Compound A-24], for which the pest or weed control at 250 g/ha with Setaria faberi (SETFA) [1] stood at 100%; in experiment [2] it was 100%; in the experiment with Avena fatua (AVEFA) [3], 80%; in experiment [4], 90%; in the experiment on Avena fatua (AVEFA) [5] it was 60%; in experiment [6], 70%. The pest or weed control at 250 g/ha in the experiment with Setaria faberi (SETFA) [7] was found to be 90%; in experiment [8] it was 100%.
Turning to `CCc1cc(-c2c(F)cc(Cl)cc2F)ccc1C1=C(O)[C@@]2(C)CC[C@H](O2)C1=O` (racemic) [Compound A-27], the pest or weed control at 250 g/ha is 100% in the experiment on Setaria faberi (SETFA) [1]; 40% in experiment [2]; 70% with Avena fatua (AVEFA) [3]; 90% in experiment [4]; 0% in the experiment on Avena fatua (AVEFA) [5]; 20% in experiment [6]. Besides, the values for the pest or weed control at 250 g/ha (in the experiment with Setaria faberi (SETFA) [7]; in experiment [8]) were 30% and 100%, respectively.
Consider `CCc1cc(-c2ccc(Cl)c(F)c2Cl)ccc1C1=C(O)[C@@]2(C)CC[C@H](O2)C1=O` (racemic) [Compound A-29], for which the pest or weed control at 250 g/ha in the experiment with Setaria faberi (SETFA) [1] is 100%; in experiment [2], 40%; with Avena fatua (AVEFA) [3], 60%; in experiment [4] it was 90%; in the experiment on Avena fatua (AVEFA) [5], 50%; in experiment [6], 30%. For the same compound, the pest or weed control at 250 g/ha is 50% in the experiment with Setaria faberi (SETFA) [7] and 100% in experiment [8].
On to `CCc1cc(-c2ccc(Cl)c(F)c2F)ccc1C1=C(O)[C@@]2(C)CC[C@H](O2)C1=O` (racemic) [Compound A-30], for which the pest or weed control at 250 g/ha in the experiment with Setaria faberi (SETFA) [1] stood at 90%; in experiment [2], 0%; in the experiment with Avena fatua (AVEFA) [3], 0%; in experiment [4] it was 30%; with Avena fatua (AVEFA) [5], 0%; in experiment [6], 0%. In addition, the pest or weed control at 250 g/ha was found to be 0% with Setaria faberi (SETFA) [7] and 50% in experiment [8].
`CCc1cc(-c2ccc(Cl)c(Cl)c2F)ccc1C1=C(O)[C@@]2(C)CC[C@H](O2)C1=O` (racemic) [Compound A-31]: the pest or weed control at 250 g/ha was determined as 100% in the experiment on Setaria faberi (SETFA) [1]; 50% in experiment [2]; 40% in the experiment on Avena fatua (AVEFA) [3]; 90% in experiment [4]; 30% in the experiment with Avena fatua (AVEFA) [5]; 30% in experiment [6]. For the same compound, the figures for the pest or weed control at 250 g/ha (with Setaria faberi (SETFA) [7]; in experiment [8]) were 60% and 100%, respectively.
Regarding `CCc1cc(-c2ccc(Cl)cc2)ccc1C1=C(OC(C)=O)[C@@H]2CC[C@@](C)(O2)C1=O` (racemic) [Compound D-1], the pest or weed control at 250 g/ha in the experiment with Setaria faberi (SETFA) [1] amounted to 100%; in experiment [2], 70%; in the experiment with Avena fatua (AVEFA) [3], 80%; in experiment [4], 90%; in the experiment on Avena fatua (AVEFA) [5] it was 40%; in experiment [6], 60%. Moreover, the pest or weed control at 250 g/ha in the experiment on Setaria faberi (SETFA) [7] stood at 80%; in experiment [8], 100%.
For `Cc1cc(-c2ccccc2)cc(C)c1C1=C(O)C(C)(C)OC(C)(C)C1=O` [Compound A-1], the pest or weed control at 250 g/ha was 80% with Setaria faberi (SETFA) [1]; 70% in experiment [2]; 0% in the experiment on Avena fatua (AVEFA) [3]; 50% in experiment [4]; 40% in the experiment on Avena fatua (AVEFA) [5]; 30% in experiment [6]. Besides, the pest or weed control at 250 g/ha came out at 90% in the experiment on Setaria faberi (SETFA) [7] and 100% in experiment [8].
Regarding `Cc1cc(-c2ccccc2)cc(C)c1C1=C(O)[C@@]2(C)C=C[C@H](O2)C1=O` [Compound A-2], the pest or weed control at 250 g/ha with Setaria faberi (SETFA) [1] came to 80%; in experiment [2], 70%; in the experiment on Avena fatua (AVEFA) [3], 0%; in experiment [4] it was 90%; in the experiment on Avena fatua (AVEFA) [5], 20%; in experiment [8], 100%. Besides, the “damage to plant ALOMY, pre-emergence activity” value in experiment [6] was 50. For the same compound, in the experiment on Setaria faberi (SETFA) [7], the “damage to plant SETFA, pre-emergence activity” value is 60.
Consider `Cc1cc(-c2ccccc2)cc(C)c1C1=C(O)[C@@]2(C)C=C[C@H](O2)C1=O` [Compound A-3], for which the “damage to plant SETFA, post-emergence activity” value in the experiment on Setaria faberi (SETFA) [1] stood at 100. In experiment [2], the “damage to plant ECHCG, pre-emergence activity” value amounted to 70. The “damage to plant AVEFA, post-emergence activity” value in the experiment on Avena fatua (AVEFA) [3] was found to be 0. The “damage to plant ALOMY, post-emergence activity” value in experiment [4] was 70. Moreover, the “damage to plant AVEFA, pre-emergence activity” value in the experiment on Avena fatua (AVEFA) [5] was 20. The “damage to plant ALOMY, pre-emergence activity” value in experiment [6] is given as 0. The “damage to plant SETFA, pre-emergence activity” value in the experiment with Setaria faberi (SETFA) [7] was determined as 90. Further, the “damage to plant ECHCG, post-emergence activity” value in experiment [8] was found to be 100.
In the case of `CCc1cc(-c2ccc(Cl)cc2)ccc1C1=C(O)[C@@]2(C)C=C[C@H](O2)C1=O` [Compound A-7], the pest or weed control at 250 g/ha came out at 100% in the experiment with Setaria faberi (SETFA) [1]; 0% in experiment [2]; 30% in the experiment on Avena fatua (AVEFA) [3]; 60% in experiment [4]; 0% in the experiment with Avena fatua (AVEFA) [5]; 0% in experiment [6]. The values for the pest or weed control at 250 g/ha (in the experiment with Setaria faberi (SETFA) [7]; in experiment [8]) were 0% and 100%, respectively.

Values taken from patent US8895761B2, “4-phenylpyrane-3,5-diones, 4-phenylthiopyrane-3,5-diones and 2-phenylcyclohexane-1,3,5-triones as herbicides” (Syngenta Limited, priority 2007, dated 2014).
